Results as given in article PMC7470127, “Design, synthesis, and evaluation of 1, 4-benzodioxan-substituted chalcones as selective and reversible inhibitors of human monoamine oxidase B” (Journal of Enzyme Inhibition and Medicinal Chemistry, 2020).
Read-outs that look alike come from different tables or passages of the source.

How the values were obtained:
hMAO-B [1] = biological target: T1, hMAO-B (Homo sapiens, UniProt P27338); assay: Reversibility study: time-dependent inhibition of hMAO-B; type: biochemical; conditions: for IC80: compounds used at the concentration of their IC80; for time after which the residual activity of hMAO-B began to increase: inhibitor at IC80; for reversibility of hMAO-B inhibition: inhibitor at IC80, activity followed for 120 min
T1 sequence (P27338 1-520): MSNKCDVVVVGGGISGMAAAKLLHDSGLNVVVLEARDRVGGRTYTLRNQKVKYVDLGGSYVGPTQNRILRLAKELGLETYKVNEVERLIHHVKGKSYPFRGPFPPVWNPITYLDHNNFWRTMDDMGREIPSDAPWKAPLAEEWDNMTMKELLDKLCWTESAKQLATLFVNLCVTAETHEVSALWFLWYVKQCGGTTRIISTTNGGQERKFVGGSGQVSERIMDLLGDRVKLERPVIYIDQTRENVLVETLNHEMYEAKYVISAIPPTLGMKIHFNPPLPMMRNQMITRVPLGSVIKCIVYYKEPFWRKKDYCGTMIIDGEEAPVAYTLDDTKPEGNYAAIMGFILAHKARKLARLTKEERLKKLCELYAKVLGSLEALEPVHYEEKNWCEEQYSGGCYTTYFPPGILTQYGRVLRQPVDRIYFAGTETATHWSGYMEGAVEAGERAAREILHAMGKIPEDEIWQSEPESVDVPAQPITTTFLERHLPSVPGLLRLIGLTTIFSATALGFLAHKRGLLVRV
Experimental: Control experiments without inhibitors were run simultaneously. The enzymatic activity was determined as described above. The percentage of enzyme activity was plotted against the incubation time to determine time-dependent enzyme inhibition.

hMAO-A = biological target: T2, hMAO-A (Homo sapiens, UniProt P21397); assay: hMAO inhibition assay (Amplex Red fluorescence), hMAO-A, p-tyramine substrate; type: biochemical; conditions: recombinant hMAO-A
T2 sequence (P21397 1-527): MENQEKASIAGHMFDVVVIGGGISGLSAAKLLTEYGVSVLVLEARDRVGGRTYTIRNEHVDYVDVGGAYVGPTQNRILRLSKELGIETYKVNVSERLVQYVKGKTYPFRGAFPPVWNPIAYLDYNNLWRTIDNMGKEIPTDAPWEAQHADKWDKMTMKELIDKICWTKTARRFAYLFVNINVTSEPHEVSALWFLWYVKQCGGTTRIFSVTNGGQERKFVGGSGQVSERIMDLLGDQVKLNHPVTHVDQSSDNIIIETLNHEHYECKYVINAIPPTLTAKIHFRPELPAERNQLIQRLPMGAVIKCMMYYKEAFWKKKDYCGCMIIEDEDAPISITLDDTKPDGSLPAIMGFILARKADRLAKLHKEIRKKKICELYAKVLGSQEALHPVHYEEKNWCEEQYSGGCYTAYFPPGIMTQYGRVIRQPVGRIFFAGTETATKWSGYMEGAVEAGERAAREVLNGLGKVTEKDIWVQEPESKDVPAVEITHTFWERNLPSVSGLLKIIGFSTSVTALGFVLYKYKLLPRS
Experimental: The hMAO inhibition assay was performed as previously described. Adequate amounts of recombinant hMAO-A/B were acquired and adjusted to 12.5 µg/mL or 75 µg/mL for hMAO-A or hMAO-B, respectively, with sodium phosphate buffer (50 mM, pH 7.4). The test compounds were dissolved in DMSO as stock solutions (10 mM) and diluted with sodium phosphate buffer (50 mM, pH 7.4) to the corresponding concentrations. Then the test compounds (20 µL) and hMAO (80 µL) were incubated for 15 min at 37 °C in a flat, black-bottomed 96-well microtest plate in the dark. The reaction was initiated by adding Amplex Red reagent (200 µM, final concentration), horseradish peroxidase (2 U/mL, final concentration), and 2 mM p-tyramine for hMAO-A or 2 mM benzylamine (final concetration) for hMAO-B and incubated at 37 °C for 20 min. Activity was quantified in a multi detection microplate fluorescence reader (SpectraMax M5, Molecular Devices, USA) based on the fluorescence generated (excitation, 545 nm; emission, 590 nm). The specific fluorescence emission was calculated after subtraction of the background activity. The background activity was determined from wells containing all components except the hMAO isoforms, which were replaced by a sodium phosphate buffer solution. The percentage inhibition was calculated by the following expression: (1 – IFi/IFc) × 100, in which IFi and IFc are the fluorescence intensities obtained for hMAO in the presence and absence of inhibitors after subtracting the respective background. […]

hMAO-B [2] = biological target: T1, hMAO-B; assay: hMAO inhibition assay (Amplex Red fluorescence), hMAO-B, benzylamine substrate; type: biochemical; conditions: for inhibition at 1 µM: tested concentration 1 µM; for Selectivity Index (SI): SI = IC50 (hMAO-A)/IC50 (hMAO-B); for fold higher inhibitory potency than 4: from IC50, versus compound 4
Experimental: The hMAO inhibition assay was performed as previously described. […] The test compounds were dissolved in DMSO as stock solutions (10 mM) and diluted with sodium phosphate buffer (50 mM, pH 7.4) to the corresponding concentrations. […] The specific fluorescence emission was calculated after subtraction of the background activity. The background activity was determined from wells containing all components except the hMAO isoforms, which were replaced by a sodium phosphate buffer solution. The percentage inhibition was calculated by the following expression: (1 – IFi/IFc) × 100, in which IFi and IFc are the fluorescence intensities obtained for hMAO in the presence and absence of inhibitors after subtracting the respective background.

hMAO-B [3] = biological target: T1, hMAO-B; assay: Enzyme kinetic study (Lineweaver–Burk plots); type: biochemical; conditions: benzylamine 1, 2, 4 and 8 mM
Experimental: To evaluate the mode of MAO-B inhibition, the representative compound was evaluated in substrate-dependent kinetic experiments performed as previously described. Sets of Lineweaver–Burk plots were generated. The reciprocal MAO-B activity was plotted against the reciprocal substrate concentration. […] The enzymatic reactions and measurements were performed using human MAO-B assay conditions as described above for the determination of IC50 values.

BV2 microglia cells = assay: MTT assay, cytotoxicity; type: cell-based; conditions: 5 and 25 µM for 24 h
Experimental: The 3–(4, 5-dimethylthiazol-2-yl)-2,5-diphenyltetrazolium (MTT) assay was performed as previously described. BV2 Cells were plated at 5000 cells per well and allowed to grow at 37 °C overnight. Then the cells were treated with various concentrations of the tested compounds for 24 h at 37 °C in a humidified atmosphere with 5% CO2, 0.5% DMSO acted as the vehicle control. The cell culture medium was then removed, followed by the addition of fresh cell culture medium containing 5.0 g/L MTT (20 µL/per well) and incubation at 37 °C in a humidified, 5% CO2 atmosphere for 4 h. After this incubation period, the cell culture medium was removed and the formed formazan crystals dissolved in 100% DMSO. The absorbance was measured at 570 nm in a multi-well plate reader. The results are expressed as % relative cell viability compared to DMSO vehicle control.

hMAO-B [4] = biological target: T1, hMAO-B; conditions: cited from earlier work
[5] = recombinant hMAO-B, read-out: hMAO-B IC50

IC80 (hMAO-B [1])	time after which the residual activity of hMAO-B began to increase (hMAO-B [1])	reversibility of hMAO-B inhibition (hMAO-B [1])	IC50 (hMAO-A)	inhibition at 1 µM (hMAO-B [2])	Selectivity Index (SI) (hMAO-B [2])	fold higher inhibitory potency than 4 (hMAO-B [2])	IC50 (hMAO-B [2]; [5])	melting point	SMILES	other results
60 nM	15 min	reversible	–	–	–	–	–	–	C[C@H](NCc1ccc(OCc2cccc(F)c2)cc1)C(N)=O [safinamide, reference compound]	–
280 nM	20 min	reversible	> 40 µM	93.4%	>702	1.7–4 fold	57 ± 4 nM	125.5 to 127 °C	O=C(/C=C/c1ccc2c(c1)OCCO2)c1cccc(Cl)c1 [Compound 17, (E)-1-(3-chlorophenyl)-3-(2,3-dihydrobenzo[b][1,4]dioxin-6-yl)prop-2-en-1-one]	mode of hMAO-B inhibition (hMAO-B [3]): competitive; Cell viability of BV2 cells (BV2 microglia cells): no considerable decrease in cellular viability
–	–	–	–	–	–	–	–	–	Cc1ccc(C(=O)/C=C/c2ccc(F)c(Br)c2)s1 [Compound 4h]	inhibition mode of hMAO-B (hMAO-B [4]; ref [13]): reversible inhibition
280 nM	20 min	reversible	> 40 µM	93.3%	>727	1.7–4 fold	55 ± 2 nM	119.3 to 120.4 °C	O=C(/C=C/c1ccc2c(c1)OCCO2)c1cccc(Br)c1 [Compound 16, (E)-1-(3-bromophenyl)-3-(2,3-dihydrobenzo[b][1,4]dioxin-6-yl)prop-2-en-1-one]	mode of hMAO-B inhibition (hMAO-B [3]): competitive; Cell viability of BV2 cells (BV2 microglia cells): no considerable decrease in cellular viability
–	–	–	–	–	–	–	–	–	Brc1cccc(COc2ccc3c(c2)OCCO3)c1 [Compound 7c]	inhibition mode of hMAO-B (hMAO-B [4]; ref [17]): reversible inhibition
–	–	–	> 40 µM	89.2%	>333	1.8–4.1 fold	120 ± 10 nM	93.7 to 95.4 °C	O=C(/C=C/c1ccc2c(c1)OCCO2)c1ccccc1F [Compound 12, (E)-3–(2,3-dihydrobenzo[b][1,4]dioxin-6-yl)-1-(2-fluorophenyl)prop-2-en-1-one]	–
–	–	–	> 40 µM	92.6%	>494	1.8–4.1 fold	81 ± 4 nM	70.3 to 72.2 °C	O=C(/C=C/c1ccc2c(c1)OCCO2)c1ccccc1Br [Compound 14, (E)-1-(2-bromophenyl)-3-(2,3-dihydrobenzo[b][1,4]dioxin-6-yl)prop-2-en-1-one]	–
–	–	–	> 40 µM	62.3%	–	–	–	155.7 to 156.1 °C	O=C(/C=C/c1ccc2c(c1)OCCO2)c1ccc(Cl)cc1O [Compound 26, (E)-1-(4-chloro-2-hydroxyphenyl)-3-(2,3-dihydrobenzo[b][1,4]dioxin-6-yl)prop-2-en-1-one]	–
200 nM	–	–	–	–	–	–	–	–	C#CCN[C@@H]1CCc2ccccc21 [rasagiline, reference compound]	–
–	–	–	–	–	–	–	–	–	COc1ccc(C(=O)/C=C/c2ccc(Cl)cc2)c(O)c1 [Compound 5i]	inhibition mode of hMAO-B (hMAO-B [4]; ref [12]): irreversible inhibition

SMILES	IC80 (hMAO-B [1])	time after which the residual activity of hMAO-B began to increase (hMAO-B [1])	reversibility of hMAO-B inhibition (hMAO-B [1])	IC50 (hMAO-A)	inhibition at 1 µM (hMAO-B [2])	Selectivity Index (SI) (hMAO-B [2])	fold higher inhibitory potency than 4 (hMAO-B [2])	IC50 (hMAO-B [2]; [5])	melting point	other results
O=C(/C=C/c1ccc2c(c1)OCCO2)c1ccc(F)c(Br)c1 [Compound 22, (E)-1-(3-bromo-4-fluorophenyl)-3-(2,3-dihydrobenzo[b][1,4]dioxin-6-yl)prop-2-en-1-one]	190 nM	20 min	reversible	> 40 µM	95.6%	–	–	–	–	IC50 (hMAO-B [2]): 26 ± 1 nM; mode of hMAO-B inhibition (hMAO-B [3]): competitive; Cell viability of BV2 cells (BV2 microglia cells): no considerable decrease in cellular viability
